Data on 2 compounds can be found in patent publication US8557222B2, “Radiopharmaceutical imaging of neurodegenerative diseases” (priority 2008, dated 2013).

Molecules are shown by their SMILES.

The nature of series [1]: Brain washout of first radiopharmaceutical in the dual imaging protocol. Type of series: in vivo, human. As to conditions: 10 mCi intravenous; at second acquisition, 30 minutes after ^18F-AV-133 given about 50 minutes after start of protocol. The source says: The cortical regions are where amyloid plaques are found in the brain using the ^18F-AV-45 radiopharmaceutical, while the striatal regions contain dopaminergic neurons detected with the ^18F-AV-133 radiopharmaceutical. […] FIGS. 5 and 6 show simulated activity curves for cortical and striatal regions of the brain, respectively, for an individual with AD. FIGS. 8 and 9 show simulated activity curves for cortical and striatal regions of the brain, respectively, of an individual with PD while FIGS. 11 and 12 show simulated activity curves for cortical and striatal regions of the brain, respectively, of an individual with AD and PD. […] Whenever the two radiopharmaceuticals were considered as being simultaneously present in the brain, the SUVs from both radiopharmaceuticals for each region were summed together, and the summed SUVs were plotted. This allowed for the simulation/prediction of the interaction and possible interference of activity of one radiopharmaceutical with the other when both are present in the brain during the imaging of the subject.
Through analyzing and experimenting with the plots and images described above, a protocol for the simultaneous imaging of AD plaques and dopaminergic neuronal degeneration was created. […] The total protocol time was about 80 to 90 minutes. […]

For series [2], the system named is β-amyloid plaque. The series is described as follows: PET imaging of β-amyloid plaque with ^18F-AV-45 (fused/simulated dual radiopharmaceutical images). Type of series: in vivo, human. The settings on record: imaged between 70 and 80 minutes, simulated fused image. The method, then:
(§1) Data was generated from the radiopharmaceutical imaging of β-amyloid plaque and nigrostriatal dopaminergic degeneration utilizing dual radiopharmaceuticals. The radiopharmaceuticals utilized included ^18F-AV-45, which targets β-amyloid plaque and ^18F-AV-133, which targets nigrostriatal neurons. The radiopharmaceuticals were administered via intravenous injection to subjects who were clinically diagnosed with Parkinson's Disease (PD) or Alzheimer's Disease (AD).
(§2) Data was analyzed for PD patients (PD_AV133) and Healthy Controls (HC_AV133) as well as for AD patients (AD_AV45) and Healthy Controls (HC_AV45). Data and images derived from subjects in each category were analyzed individually. Data and images from an average of 4 subjects in each respective category was also analyzed and used as the basis of this protocol. The optimal imaging protocol was judged based on the following criteria: clarity of images/data in the cortical, grey, and white volumes of interest (VOIs) of the brain (relating to diagnosis of AD) and the striatal VOIs of the brain (relating to diagnosis of PD/DLB); ease and level of certainty of the individual diagnoses of the presence or absence of AD, PD, and DLB; minimum level of radiation injected into a patient; and minimum protocol completion time.
(§3) FIGS. 1, 4, 7 and 10 were created by the fusion of two separate image data sets, one from a PET scan of an ^18F amyloid plaque-binding radiopharmaceutical (^18F-AV-45) and one from a PET scan of an ^18F VMAT2 targeted radiopharmaceutical (^18F-AV-133). FIG. 1 is a simulated image of the brain of a healthy individual with no observable amyloid plaques and normal dopaminergic neurons (imaged between 70 and 80 minutes). […] This image pattern is consistent with a pure AD diagnosis, with no evidence of loss of striatal neurons (which would be observed if PD or DLB were also present). […] This image pattern is consistent with a pure PD diagnosis, without evidence of AD amyloid plaque pathology.
(§4) The Statistical Parametric Mapping (SPM2) application in MATLAB® (Version 7.3 R2006b, MathWorks, Inc.) was used to align the raw images and create a mean image from the image set. The mean image was normalized to a SPECT template, although in other experiments, other templates were used. Using the image viewer application in MRICro, the normalized mean image was compared with the template image to confirm that the two images align. […] Standardized uptake values (SUVs) were calculated from the counts extracted from the images. […]
(§5) The cortical regions are where amyloid plaques are found in the brain using the ^18F-AV-45 radiopharmaceutical, while the striatal regions contain dopaminergic neurons detected with the ^18F-AV-133 radiopharmaceutical. […]

For series [3], the target named is T1, VMAT2 (Homo sapiens, UniProt Q05940).
T1 construct: from tissue; host or cells: brain (striatal regions, dopaminergic neurons) of living human subjects, in vivo PET
The series is described as follows: PET imaging of nigrostriatal dopaminergic neurons with ^18F-AV-133 (fused/simulated dual radiopharmaceutical images). The class given is in vivo. As to conditions: imaged between 70 and 80 minutes, simulated fused image. The method, then:
as §1, §2, §3, §4, §5

[4] abbreviates: FIG. 4, individual with clinical signs of AD.
Where [5] appears, read: FIG. 7, individual exhibiting symptoms of PD.
Setting [6] is: FIG. 10, individual with both AD and PD.

T1 sequence (Q05940 whole entry): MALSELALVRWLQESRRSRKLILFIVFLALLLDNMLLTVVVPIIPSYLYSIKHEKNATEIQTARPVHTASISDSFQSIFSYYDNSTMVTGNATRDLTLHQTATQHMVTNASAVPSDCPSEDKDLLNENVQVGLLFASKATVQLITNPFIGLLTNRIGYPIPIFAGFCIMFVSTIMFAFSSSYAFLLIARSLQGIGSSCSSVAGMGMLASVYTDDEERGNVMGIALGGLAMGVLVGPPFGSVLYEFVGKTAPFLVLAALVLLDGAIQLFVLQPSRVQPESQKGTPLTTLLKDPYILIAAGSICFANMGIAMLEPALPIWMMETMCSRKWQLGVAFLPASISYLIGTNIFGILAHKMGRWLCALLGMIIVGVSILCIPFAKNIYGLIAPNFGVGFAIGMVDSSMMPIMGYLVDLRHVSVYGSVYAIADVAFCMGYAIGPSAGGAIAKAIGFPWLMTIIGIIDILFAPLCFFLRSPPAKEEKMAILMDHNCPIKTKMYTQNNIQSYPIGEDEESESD

For `CNc1ccc(/C=C/c2ccc(OCCOCCOCC[18F])nc2)cc1` [^18F-AV-45, (E)-4-(2-(6-(2-(2-(2-[^18F]fluoroethoxy)ethoxy)ethoxy)pyridin-3-yl)vinyl)-N-methylbenzenamine], in series [1], the “washout and radioactive decay of ^18F-AV-45 from brain” value is given as “essentially complete”. In addition, the “cortical brain signal from ^18F-AV-45” value in series [2] (FIG. 1, healthy individual) is “no appreciable cortical brain signal”. For the same compound, the “^18F-AV-45 radiopharmaceutical signal (amyloid plaque deposits)” value in series [2] (setting [4]) is “Amyloid plaque deposits are visible in the frontal region of the brain”. The “amyloid signal in the cortical brain regions from ^18F-AV-45” value in series [2] (setting [5]) is “does not show evidence of amyloid signal in the cortical brain regions”. In addition, the “^18F-AV-45 retention (amyloid plaques)” value in series [2] (setting [6]) was “retention in cortical brain”.
For the compound `COc1cc2c(cc1OCCC[18F])CCN1C[C@@H](CC(C)C)[C@H](O)C[C@H]21` [^18F-AV-133, (2R,3R,11bR)-9-(3-[18F]fluoropropoxy)-3-isobutyl-10-methoxy-2,3,4,6,7,11b-hexahydro-1H pyrido[2,1a]isoquinolin-2-ol], in series [3] (FIG. 1, healthy individual), the “signal in the nigrostriatal region from ^18F-AV-133” value was “strong signal in the nigrostriatal region”. In addition, the “uptake of ^18F-AV-133 in the nigrostriatal region of the brain” value in series [3] (setting [4]) is reported as “normal uptake”. Moreover, the “intensity of ^18F-AV-133 in the striatal regions” value in series [3] (setting [5]) is recorded as “lack of intensity in the striatal regions”. Further, the “uptake of AV-133 in the striatal regions” value in series [3] (setting [6]) was “diminished uptake”.
